# Laboratory results as given in patent US20090054454A1, “BENZOFURANYL- AND BENZOTHIENYL- PIPERAZINYL QUINOLINES AND METHODS OF THEIR USE” (priority 2007, published 2009).
# Structures can show the parent of a compound that is named as a salt.
# Key:
# Human 5-HT Transporter = Human 5-HT Transporter (Homo sapiens, UniProt P31645); assay: Inhibition of 3H-5-HT Uptake by Cells Possessing the Human 5-HT Transporter (HC 5HT Transporter), Jar cells; settings: HC-5HTC Transporter Ki (nM), Jar cells treated with staurosporine
# 5-HT transporter = 5-HT transporter (Rattus norvegicus, UniProt P31652); assay: Rat Brain 3H-Paroxetine Binding Assay (RB 5HT Transporter); settings: read-out: RB-5HT Transporter % inhibition @ 1 μM concentration
# human 5-HT1A receptors = molecular target: T1, human 5-HT1A receptors (Homo sapiens, UniProt P08908); assay: Displacement of [3H] 8-OH-DPAT from the 5-HT1A serotonin receptor; format: binding; settings: 1 μM concentration; starred cells of the 5-HT1A column
# T1 construct: expressed in transfected cells; host or cells: CHO cells (stably transfected)
# T1 sequence (P08908 1-422): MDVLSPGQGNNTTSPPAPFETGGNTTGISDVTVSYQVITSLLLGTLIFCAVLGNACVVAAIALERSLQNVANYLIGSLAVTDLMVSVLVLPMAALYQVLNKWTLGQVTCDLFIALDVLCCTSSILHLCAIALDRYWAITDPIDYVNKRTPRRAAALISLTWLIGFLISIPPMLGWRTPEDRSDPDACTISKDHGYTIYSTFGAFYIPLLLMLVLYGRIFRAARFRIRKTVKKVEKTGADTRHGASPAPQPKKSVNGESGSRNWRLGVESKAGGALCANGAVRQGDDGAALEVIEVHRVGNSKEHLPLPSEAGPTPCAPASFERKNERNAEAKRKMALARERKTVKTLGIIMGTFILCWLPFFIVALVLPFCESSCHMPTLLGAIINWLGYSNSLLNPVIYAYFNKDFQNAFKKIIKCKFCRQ
# Sequence of Human 5-HT Transporter (P31645 whole entry): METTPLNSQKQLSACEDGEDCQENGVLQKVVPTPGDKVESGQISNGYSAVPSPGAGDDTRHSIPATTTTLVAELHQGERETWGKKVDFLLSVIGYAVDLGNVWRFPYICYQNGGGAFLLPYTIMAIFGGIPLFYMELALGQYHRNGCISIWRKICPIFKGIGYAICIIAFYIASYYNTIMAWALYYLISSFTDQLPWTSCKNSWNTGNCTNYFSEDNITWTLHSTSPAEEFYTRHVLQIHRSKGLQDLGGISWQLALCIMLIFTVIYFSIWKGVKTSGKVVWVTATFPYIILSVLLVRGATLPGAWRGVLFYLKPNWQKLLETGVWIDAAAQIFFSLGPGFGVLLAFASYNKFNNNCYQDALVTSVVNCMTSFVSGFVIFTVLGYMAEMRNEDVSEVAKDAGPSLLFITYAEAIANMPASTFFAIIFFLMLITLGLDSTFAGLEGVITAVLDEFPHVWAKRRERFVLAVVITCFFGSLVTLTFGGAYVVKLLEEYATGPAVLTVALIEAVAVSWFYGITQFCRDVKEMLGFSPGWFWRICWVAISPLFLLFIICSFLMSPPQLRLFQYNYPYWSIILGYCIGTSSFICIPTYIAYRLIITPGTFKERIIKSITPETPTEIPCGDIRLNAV
# Sequence of 5-HT transporter (P31652 whole entry): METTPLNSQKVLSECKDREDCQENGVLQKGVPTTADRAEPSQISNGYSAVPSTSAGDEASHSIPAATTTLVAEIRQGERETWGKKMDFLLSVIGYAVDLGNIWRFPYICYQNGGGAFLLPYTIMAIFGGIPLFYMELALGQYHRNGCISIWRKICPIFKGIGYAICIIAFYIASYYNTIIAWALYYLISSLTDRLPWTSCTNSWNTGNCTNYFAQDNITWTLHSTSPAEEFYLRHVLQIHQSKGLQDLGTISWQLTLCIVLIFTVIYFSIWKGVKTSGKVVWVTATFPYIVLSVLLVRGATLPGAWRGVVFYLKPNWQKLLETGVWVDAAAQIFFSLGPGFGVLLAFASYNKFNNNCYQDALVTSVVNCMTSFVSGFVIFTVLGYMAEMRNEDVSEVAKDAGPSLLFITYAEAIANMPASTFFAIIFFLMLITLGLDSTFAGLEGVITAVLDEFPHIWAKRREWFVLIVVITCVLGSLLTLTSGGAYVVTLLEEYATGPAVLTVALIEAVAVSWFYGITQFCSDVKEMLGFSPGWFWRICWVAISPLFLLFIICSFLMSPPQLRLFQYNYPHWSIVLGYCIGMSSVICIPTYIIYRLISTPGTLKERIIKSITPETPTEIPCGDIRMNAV
Compound,melting point,Ki (Human 5-HT Transporter),inhibition at 1 µM (5-HT transporter),inhibition at 1 µM (human 5-HT1A receptors)
"COc1ccc2occ([C@H]3CC[C@H](N4CCN(c5cc(F)cc6cccnc56)CC4)CC3)c2c1 [Compound 68, 6-fluoro-8-{4-[4-trans(5-methoxy-1-benzofuran-3-yl)cyclohexyl]piperazin-1-yl}quinoline]",152 to 155 °C,3290 nM,–,–
"Fc1cc(N2CCN([C@H]3CC[C@@H](c4csc5ccc(F)cc54)CC3)CC2)c2ncccc2c1 [Compound 47, 6-fluoro-8-{4-[4-cis(5-fluoro-1-benzothien-3-yl)cyclohexyl]piperazin-1-yl}quinoline]",–,3490 nM,25%,–
"COc1ccc2occ([C@H]3CC[C@@H](N4CCN(c5cc(F)cc6cccnc56)CC4)CC3)c2c1 [Compound 67, 6-fluoro-8-{4-[4-cis(5-methoxy-1-benzofuran-3-yl)cyclohexyl]piperazin-1-yl}quinoline]",153 to 160 °C,1200 nM,–,–
"Clc1cc(N2CCN(CCc3coc4cc(Cl)ccc34)CC2)c2ncccc2c1 [Compound 7, 8-{4-[2-(6-chloro-1-benzofuran-3-yl)ethyl]-1-piperazinyl}-6-chloro-quinoline]",–,2150 nM,32%,–
"COc1cc(N2CCN([C@H]3CC[C@@H](c4csc5ccccc54)CC3)CC2)c2ncccc2c1 [Compound 45, 8-{4-[4-cis(1-benzothien-3-yl)cyclohexyl]-1-piperazinyl}-6-methoxyquinoline]",148 to 150 °C,1080 nM,–,–
COc1cc(N2CCN([C@H]3CC[C@@H](c4cc5ccccc5s4)CC3)CC2)c2ncccc2c1 [Compound 70],184 to 186 °C,3000 nM,–,–
"COc1cccc2c(CCN3CCN(c4cc(Cl)cc5cccnc45)CC3)coc12 (as salt: HCl) [Compound 20, 8-{4-[2-(7-methoxy-1-benzofuran-3-yl)ethyl]-1-piperazinyl}-6-chloro-quinoline]",248 °C,–,–,–
"COc1cccc2c1occ2[C@H]1CC[C@@H](N2CCN(c3ccc(F)c4cccnc34)CC2)CC1 [Compound 57, 5-fluoro-8-{4-[4-cis(7-methoxy-1-benzofuran-3-yl)cyclohexyl]-1-piperazinyl}quinoline]",143 to 146 °C,3040 nM,–,–
"Fc1cc(N2CCN(CCc3coc4ccc(F)cc34)CC2)c2ncccc2c1 (as salt: HCl) [Compound 17, 8-{4-[2-(5-fluoro-1-benzofuran-3-yl)ethyl]-1-piperazinyl}-6-fluoro-quinoline]",55 °C,–,–,–
"COc1cc(N2CCN(CCc3coc4c(OC)cccc34)CC2)c2ncccc2c1 (as salt: HCl) [Compound 19, 8-{4-[2-(7-methoxy-1-benzofuran-3-yl)ethyl]-1-piperazinyl}-6-methoxy-quinoline]",86 °C,–,–,–
"Fc1ccc(N2CCN([C@H]3CC[C@@H](c4coc5ccccc54)CC3)CC2)c2ncccc12 [Compound 53, 8-{4-[4-cis(1-benzofuran-3-yl)cyclohexyl]-1-piperazinyl}-5-fluoroquinoline]",142 to 144 °C,3910 nM,–,–
"Fc1cc(N2CCN([C@H]3CC[C@@H](c4csc5ccccc54)CC3)CC2)c2ncccc2c1 [Compound 43, 8-{4-[4-cis(1-benzothien-3-yl)cyclohexyl]-1-piperazinyl}-6-fluoroquinoline]",147 to 151 °C,1440 nM,–,–
"Fc1ccc2scc([C@H]3CC[C@@H](N4CCN(c5ccc(Cl)c6cccnc56)CC4)CC3)c2c1 [Compound 51, 5-chloro-8-{4-[4-cis(5-fluoro-1-benzothien-3-yl)cyclohexyl]piperazin-1-yl}quinoline]",192 to 197 °C,1150 nM,–,–
"Fc1cc(N2CCN([C@H]3CC[C@H](c4csc5ccccc54)CC3)CC2)c2ncccc2c1 [Compound 44, 8-{4-[4-trans(1-benzothien-3-yl)cyclohexyl]-1-piperazinyl}-6-fluoroquinoline]",195 °C,1620 nM,–,–
"COc1ccc2occ(CCN3CCN(c4cc(C(C)C)cc5cccnc45)CC3)c2c1 [Compound 24, 8-{4-[2-(5-methoxy-1-benzofuran-3-yl)ethyl]-1-piperazinyl}-6-isopropyl-quinoline]",–,3730 nM,24%,46%
"COc1cccc2c(C(C)CN3CCN(c4cccc5cccnc45)CC3)coc12 (centres unmarked) (as salt: HCl) [Compound 31, 8-{4-[2-(7-methoxy-1-benzofuran-3-yl)propyl]-1-piperazinyl}quinoline]",192 °C,–,–,–

# Further compounds by falling Ki (Human 5-HT Transporter), results first:
melting point,Ki (Human 5-HT Transporter),inhibition at 1 µM (5-HT transporter),inhibition at 1 µM (human 5-HT1A receptors),Compound
166 to 168 °C,802 nM,–,–,"COc1cc(N2CCN([C@H]3CC[C@H](c4csc5ccccc54)CC3)CC2)c2ncccc2c1 [Compound 46, 8-{4-[4-trans (1-benzothien-3-yl)cyclohexyl]-1-piperazinyl}-6-methoxyquinoline]"
195 to 197 °C,751 nM,–,42%,"Fc1ccc2scc([C@H]3CC[C@H](N4CCN(c5ccc(Cl)c6cccnc56)CC4)CC3)c2c1 [Compound 52, 5-chloro-8-{4-[4-trans(5-fluoro-1-benzothien-3-yl)cyclohexyl]piperazin-1-yl}quinoline]"
143 to 144 °C,739 nM,–,–,"Fc1cc(N2CCN([C@H]3CC[C@H](c4csc5ccc(F)cc54)CC3)CC2)c2ncccc2c1 [Compound 48, 6-fluoro-8-{4-[4-trans(5-fluoro-1-benzothien-3-yl)cyclohexyl]piperazin-1-yl}quinoline]"
75 to 83 °C,455 nM,–,–,"COc1cccc2c1occ2[C@H]1CC[C@@H](N2CCN(c3cc(F)cc4cccnc34)CC2)CC1 [Compound 59, 6-fluoro-8-{4-[4-cis(7-methoxy-1-benzofuran-3-yl)cyclohexyl]-1-piperazinyl}quinoline]"
164 to 165 °C,338 nM,–,–,"Clc1cc(N2CCN([C@H]3CC[C@@H](c4csc5ccccc54)CC3)CC2)c2ncccc2c1 [Compound 41, 8-{4-[4-cis-(1-benzothien-3-yl)cyclohexyl]-1-piperazinyl}-6-chloroquinoline]"
195 to 197 °C,337 nM,–,–,"Fc1cc(N2CCN([C@H]3CC[C@H](c4coc5ccccc54)CC3)CC2)c2ncccc2c1 [Compound 56, 8-{4-[4-trans(1-benzofuran-3-yl)cyclohexyl]-1-piperazinyl}-6-fluoroquinoline]"
162 to 164 °C,220 nM,–,–,"Fc1ccc(N2CCN([C@H]3CC[C@H](c4coc5ccccc54)CC3)CC2)c2ncccc12 [Compound 54, 8-{4-[4-trans(1-benzofuran-3-yl)cyclohexyl]-1-piperazinyl}-5-fluoroquinoline]"
195 to 197 °C,212 nM,–,–,"COc1cccc2c1occ2[C@H]1CC[C@H](N2CCN(c3cc(F)cc4cccnc34)CC2)CC1 [Compound 60, 6-fluoro-8-{4-[4-trans(7-methoxy-1-benzofuran-3-yl)cyclohexyl]-1-piperazinyl}quinoline]"
143 to 144 °C,184 nM,–,–,"Clc1cc(N2CCN([C@H]3CC[C@H](c4csc5ccccc54)CC3)CC2)c2ncccc2c1 [Compound 42, 8-{4-[4-trans(1-benzothien-3-yl)cyclohexyl]-1-piperazinyl}-6-chloroquinoline]"
72 °C,106 nM,–,–,"COc1ccc2occ(CCN3CCN(c4cc(Cl)cc5cccnc45)CC3)c2c1 [Compound 22, 8-{4-[2-(5-methoxy-1-benzofuran-3-yl)ethyl]-1-piperazinyl}-6-chloro-quinoline]"
66 to 67 °C,96.8 nM,–,–,"COc1cccc2c1occ2[C@H]1CC[C@@H](N2CCN(c3cccc4cccnc34)CC2)CC1 [Compound 61, 8-{4-[4-cis(7-methoxy-1-benzofuran-3-yl)cyclohexyl]-1-piperazinyl}quinoline]"
78 °C,43.6 nM,–,–,"COc1ccc2occ(CCN3CCN(c4cccc5cccnc45)CC3)c2c1 [Compound 21, 8-{4-[2-(5-methoxy-1-benzofuran-3-yl)ethyl]-1-piperazinyl}-quinoline]"
195 to 197 °C,38 nM,–,–,"COc1cccc2c1occ2[C@H]1CC[C@H](N2CCN(c3cccc4cccnc34)CC2)CC1 [Compound 62, 8-{4-[4-trans(7-methoxy-1-benzofuran-3-yl)cyclohexyl]-1-piperazinyl}quinoline]"
